Laboratory results taken from PubChem BioAssay (NCI).
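Five compound concentrations were applied to cells in 96-well plates for 48 hours; endpoints were derived by simple linear interpolation of the resulting dose-response curve. GI50: concentration for 50% inhibition of growth. TGI denotes the concentration required for complete inhibition of growth.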

Each compound was assayed on NCI-H460 lung (assay: growth of human tumour cells (NCI), 48 h).
With Cn1c2ccccc2n2c(=O)c3c(c(C#N)c12)CCCC3 the TGI was over 100 µM.
For Cc1cc(N(CCC#N)CCC#N)ccc1/C=C1N=C(/C=C\c2ccccc2)N(c2ccc(Cl)cc2)C\1=O, the TGI was over 100 µM.
O=C([CH-]C(=O)c1ccccc1)c1ccccc1.O=C([CH-]C(=O)c1ccccc1)c1ccccc1.[OH-].[OH-].[Ti+4] gave a GI50 of 60.3 µM and a TGI of over 100 µM.
With Fc1cccc(C2SCc3nc4ccccc4n32)c1F (centres undefined) the TGI was over 100 µM.
In the case of O=C(N/N=C/c1cc(Cl)cc(Cl)c1O)c1ccccc1O, the TGI is reported as 18.8 µM.

The compounds below were run on NCI/ADR-RES ovarian (assay: growth of human tumour cells (NCI), 48 h).
Work on Cc1cc(N(CCC#N)CCC#N)ccc1/C=C1N=C(/C=C\c2ccccc2)N(c2ccc(Cl)cc2)C\1=O yielded a TGI of over 100 µM.

The compounds below were run on SK-MEL-2 melanoma (assay: growth of human tumour cells (NCI), 48 h).
Cn1c2ccccc2n2c(=O)c3c(c(C#N)c12)CCCC3 showed a TGI of over 100 µM.
Compound Cc1cc(N(CCC#N)CCC#N)ccc1/C=C1N=C(/C=C\c2ccccc2)N(c2ccc(Cl)cc2)C\1=O has a TGI of over 100 µM.
With O=C([CH-]C(=O)c1ccccc1)c1ccccc1.O=C([CH-]C(=O)c1ccccc1)c1ccccc1.[OH-].[OH-].[Ti+4] the GI50 was 76.5 µM and the TGI was over 100 µM.
Work on COc1cc(-c2cc(-c3cc([N+](=O)[O-])c(/C=N/NC(=O)c4ccncc4)o3)ccc2OC)ccc1C yielded a TGI of over 100 µM.
Work on Fc1cccc(C2SCc3nc4ccccc4n32)c1F (centres undefined) yielded a TGI of 76.4 µM.
O=C(N/N=C/c1cc(Cl)cc(Cl)c1O)c1ccccc1O gave a GI50 of 1.39 µM and a TGI of 6.87 µM.

These compounds were tested on OVCAR-4 ovarian (assay: growth of human tumour cells (NCI), 48 h).
Work on Cn1c2ccccc2n2c(=O)c3c(c(C#N)c12)CCCC3 yielded a TGI of over 100 µM.
Cc1cc(N(CCC#N)CCC#N)ccc1/C=C1N=C(/C=C\c2ccccc2)N(c2ccc(Cl)cc2)C\1=O gave a TGI of over 100 µM.
COc1cc(-c2cc(-c3cc([N+](=O)[O-])c(/C=N/NC(=O)c4ccncc4)o3)ccc2OC)ccc1C showed a TGI of over 100 µM.
For Fc1cccc(C2SCc3nc4ccccc4n32)c1F (centres undefined), the TGI was over 100 µM.

These compounds were tested on LXFL 529 NSCLC (assay: growth of human tumour cells (NCI), 48 h).
COc1cc(-c2cc(-c3cc([N+](=O)[O-])c(/C=N/NC(=O)c4ccncc4)o3)ccc2OC)ccc1C was tested, and the TGI was over 100 µM.
Fc1cccc(C2SCc3nc4ccccc4n32)c1F (centres undefined) showed a TGI of over 100 µM.

Each compound was assayed on HS 578T breast (assay: growth of human tumour cells (NCI), 48 h).
Cc1cc(N(CCC#N)CCC#N)ccc1/C=C1N=C(/C=C\c2ccccc2)N(c2ccc(Cl)cc2)C\1=O was tested, and the TGI was over 100 µM.

Each compound was assayed on MOLT-4 leukemia (assay: growth of human tumour cells (NCI), 48 h).
With Cn1c2ccccc2n2c(=O)c3c(c(C#N)c12)CCCC3 the TGI was over 100 µM.
For Cc1cc(N(CCC#N)CCC#N)ccc1/C=C1N=C(/C=C\c2ccccc2)N(c2ccc(Cl)cc2)C\1=O, the TGI was over 100 µM.
O=C([CH-]C(=O)c1ccccc1)c1ccccc1.O=C([CH-]C(=O)c1ccccc1)c1ccccc1.[OH-].[OH-].[Ti+4] showed a GI50 of 54.7 µM and a TGI of over 100 µM.
With Fc1cccc(C2SCc3nc4ccccc4n32)c1F (centres undefined) the TGI was 68.5 µM.
Work on O=C(N/N=C/c1cc(Cl)cc(Cl)c1O)c1ccccc1O yielded a GI50 of 0.375 µM and a TGI of over 100 µM.

Each compound was assayed on OVCAR-5 ovarian (assay: growth of human tumour cells (NCI), 48 h).
Compound Cn1c2ccccc2n2c(=O)c3c(c(C#N)c12)CCCC3 has a TGI of over 100 µM.
For Cc1cc(N(CCC#N)CCC#N)ccc1/C=C1N=C(/C=C\c2ccccc2)N(c2ccc(Cl)cc2)C\1=O, the TGI was over 100 µM.
Compound O=C([CH-]C(=O)c1ccccc1)c1ccccc1.O=C([CH-]C(=O)c1ccccc1)c1ccccc1.[OH-].[OH-].[Ti+4] has a GI50 of over 100 µM and a TGI of over 100 µM.
Work on COc1cc(-c2cc(-c3cc([N+](=O)[O-])c(/C=N/NC(=O)c4ccncc4)o3)ccc2OC)ccc1C yielded a TGI of over 100 µM.
Fc1cccc(C2SCc3nc4ccccc4n32)c1F (centres undefined) was tested, and the TGI was over 100 µM.
Compound O=C(N/N=C/c1cc(Cl)cc(Cl)c1O)c1ccccc1O has a TGI of 7.82 µM.

The compounds below were run on OVCAR-8 ovarian (assay: growth of human tumour cells (NCI), 48 h).
For Cn1c2ccccc2n2c(=O)c3c(c(C#N)c12)CCCC3, the TGI was over 100 µM.
In the case of Cc1cc(N(CCC#N)CCC#N)ccc1/C=C1N=C(/C=C\c2ccccc2)N(c2ccc(Cl)cc2)C\1=O, the TGI is reported as over 100 µM.
O=C([CH-]C(=O)c1ccccc1)c1ccccc1.O=C([CH-]C(=O)c1ccccc1)c1ccccc1.[OH-].[OH-].[Ti+4] showed a GI50 of 55 µM and a TGI of over 100 µM.
Fc1cccc(C2SCc3nc4ccccc4n32)c1F (centres undefined) gave a TGI of over 100 µM.
O=C(N/N=C/c1cc(Cl)cc(Cl)c1O)c1ccccc1O showed a TGI of 13.9 µM.

Each compound was assayed on SF-295 CNS (assay: growth of human tumour cells (NCI), 48 h).
Cn1c2ccccc2n2c(=O)c3c(c(C#N)c12)CCCC3 was tested, and the TGI was over 100 µM.
Cc1cc(N(CCC#N)CCC#N)ccc1/C=C1N=C(/C=C\c2ccccc2)N(c2ccc(Cl)cc2)C\1=O gave a TGI of over 100 µM.
